# Results published in patent US7659293B2, “α-Amino-N-hydroxy-acetamide derivatives” (Novartis AG, priority 2001, dated 2010).
# Tested on: BN472 rat mammary carcinoma
# Experiment: Spontaneous metastases model, BN472 rat mammary tumors transplanted orthotopically
# Type: in vivo
# Conditions: 4 weeks, vehicle control about 230
# Experimental: Tumor fragments of ca. 25 mm^3 are transplanted under the mammary fat pad of female Brown-Norwegian (BN) rats. A compound of formula I is suspended in 1% carboxymethyl cellulose (CMC) in sterile water. The formulations are administered orally at doses of either 30 mg/kg once per day or 15 mg/kg twice per day. Animals in the tumor-bearing control group and the non-tumor-bearing control group (healthy rats) receive vehicle only. Treatment starts after randomization and continues for 4 weeks. Lung metastases are determined after four weeks of treatment by counting the number of lesions visible on the surface of the lungs after fixation in Bouin's fixative. In this model the compounds of formula I at a dose of either 30 mg/kg once per day or 15 mg/kg twice per day produce reductions in the incidence and/or extent of metastases in lungs and regional lymph nodes. The reduction in the median number of lung metastases or weight of regional lymph nodes is between approximately 25% and 70%. For Example, for the compound of Example 3 the median number of lung foci is about 105 for both dosages compared to a median number of about 230 lung foci in the vehicle control group. Based on the increase in body weight and general health, the compounds appear to be well tolerated. […]
compound,measurement,setting,value
"O=C(CN(Cc1ccc(-n2nccn2)cc1)S(=O)(=O)c1ccc(OCC2CC2)cc1)NO [Example 3, [(4-Cyclopropylmethoxy-benzenesulfonyl)-(4-[1,2,3]triazol-2-yl-benzyl)amino]-N-hydroxy-acetamide]",median number of lung foci,15 mg/kg twice per day orally,about 105
same,median number of lung foci,30 mg/kg once per day orally,about 105
